Where a name gives a salt, the structure may show the parent alone.

This is an account of results in patent US20240366581A1 (Hoffmann-La Roche Inc., priority 2022, published 2024).

Common to all, as to type: biochemical
One experiment addresses SIK1 (Homo sapiens (Human), UniProt P57059). The experiment can be described thus: SIK1 enzymatic activity assay, RapidFire mass spectrometry (CHK-peptide phosphorylation). The conditions noted are these: 5 nM SIK1, CHK-peptide, ATP, 30 min pre-incubation, 45 min reaction, RapidFire MS; read-out: SIK1 RF IC50. The procedure: (§1) In the presence of SIK2 (resp. SIK1 or SIK3) and ATP the CHK-peptide ([…] with C-terminal arginine amide modification) were phosphorylated at one of the four feasible serine's. Only one phosphorylation is observed under the assay conditions. 60 nl of each compound dilution series (12 point; dilution factor 3, generally 30 μM to 170 pM) in DMSO were transferred by acoustic dispensing to the assay plate and 30 min pre-incubated (ambient temperature) after the addition of 5 μl SIK1 (5 nM) resp. 5 μl SIK2 (0.5 nM) or 7 μl SIK3 (1.5 nM) in assay-buffer (12.5 mM HEPES (pH 7.0), 10 mM magnesium acetate, 0.005% BSA). 10 μM CHK-peptide solution and 5 μl 100 μM ATP for SIK1 & SIK2 resp. 3 μl for SIK3 in assay-buffer were added and incubated ambient for 45 min. 40 μl 0.125% formic acid in water were added to quench the reaction. RapidFire (RF) Mass Spectrometry was utilized for data generation as described below. The multiple charged species (3-5 charges) for the phosphorylated and non-phosphorylated form measured by MRM (Multiple Reaction Monitoring; API5000 or 6500+) or EIC (Extracted Ion Current; QToF) were summed up and the ratio calculated (sum phosphorylated species/sum all species) for data evaluation. Normalization was performed by Genedata software based on the non-inhibition control DMSO and the commercially available SIK inhibitor @ 1 μM YKL-05-099 (CAS number 1936529-65-5). The results of the assay are expressed in half-maximal inhibitory concentrations (IC50s) and are summarized below in Table 1.
(§2) Samples were aspirated by vacuum for max. 600 ms and loaded to C4-cartridge (Agilent; #G9203A) for 3000 ms@1.5 ml/min with 0.1% formic acid in water. Afterwards samples were transferred to the API5000 (API6500+) or QToF mass spectrometer for 4000 ms@1.25 ml/min with 90% acetonitrile; 10% water; 0.007% TFA; 0.093 formic acid. The cartridge was reconditioned for additional 500 ms with 0.1% formic acid in water
(§3) All MS analyses using the following MS-setup in MRM mode: Electrospray positive; Ion Spray Voltage: 4000V; Temperature: 550° C.; Collision Gas: 5; Curtain Gas: 15; Gas1: 40; Gas 2: 42; EP: 10
(§4) All MS analyses using the following MS-setup in Mode MS: Dual AJS Electrospray positive; VCap: 3000V; Drying & Sheath gas: 340° C.@81/min; Nebulizer: 60 psig; Nozzle Voltage: 2000V; Fragmentor: 130V; Skimmer: 35V; Oct1 RF Vpp: 700V; Ref masses on@5spectra/s

In another experiment the target is SIK2 (Homo sapiens (Human), UniProt Q9H0K1). The experiment in a line: SIK2 enzymatic activity assay, RapidFire mass spectrometry (CHK-peptide phosphorylation). The conditions noted are these: 0.5 nM SIK2, CHK-peptide, ATP, 30 min pre-incubation, 45 min reaction, RapidFire MS; read-out: SIK2 RF IC50. The method, then: as §1, §2, §3, §4
The target of the next experiment is SIK3 (Homo sapiens (Human), UniProt Q9Y2K2). The experiment in a line: SIK3 enzymatic activity assay, RapidFire mass spectrometry (CHK-peptide phosphorylation). The conditions noted are these: 1.5 nM SIK3, CHK-peptide, ATP, 30 min pre-incubation, 45 min reaction, RapidFire MS; read-out: SIK3 RF IC50. The method, then: as §1, §2, §3, §4
Chain of SIK3 (Q9Y2K2 whole entry): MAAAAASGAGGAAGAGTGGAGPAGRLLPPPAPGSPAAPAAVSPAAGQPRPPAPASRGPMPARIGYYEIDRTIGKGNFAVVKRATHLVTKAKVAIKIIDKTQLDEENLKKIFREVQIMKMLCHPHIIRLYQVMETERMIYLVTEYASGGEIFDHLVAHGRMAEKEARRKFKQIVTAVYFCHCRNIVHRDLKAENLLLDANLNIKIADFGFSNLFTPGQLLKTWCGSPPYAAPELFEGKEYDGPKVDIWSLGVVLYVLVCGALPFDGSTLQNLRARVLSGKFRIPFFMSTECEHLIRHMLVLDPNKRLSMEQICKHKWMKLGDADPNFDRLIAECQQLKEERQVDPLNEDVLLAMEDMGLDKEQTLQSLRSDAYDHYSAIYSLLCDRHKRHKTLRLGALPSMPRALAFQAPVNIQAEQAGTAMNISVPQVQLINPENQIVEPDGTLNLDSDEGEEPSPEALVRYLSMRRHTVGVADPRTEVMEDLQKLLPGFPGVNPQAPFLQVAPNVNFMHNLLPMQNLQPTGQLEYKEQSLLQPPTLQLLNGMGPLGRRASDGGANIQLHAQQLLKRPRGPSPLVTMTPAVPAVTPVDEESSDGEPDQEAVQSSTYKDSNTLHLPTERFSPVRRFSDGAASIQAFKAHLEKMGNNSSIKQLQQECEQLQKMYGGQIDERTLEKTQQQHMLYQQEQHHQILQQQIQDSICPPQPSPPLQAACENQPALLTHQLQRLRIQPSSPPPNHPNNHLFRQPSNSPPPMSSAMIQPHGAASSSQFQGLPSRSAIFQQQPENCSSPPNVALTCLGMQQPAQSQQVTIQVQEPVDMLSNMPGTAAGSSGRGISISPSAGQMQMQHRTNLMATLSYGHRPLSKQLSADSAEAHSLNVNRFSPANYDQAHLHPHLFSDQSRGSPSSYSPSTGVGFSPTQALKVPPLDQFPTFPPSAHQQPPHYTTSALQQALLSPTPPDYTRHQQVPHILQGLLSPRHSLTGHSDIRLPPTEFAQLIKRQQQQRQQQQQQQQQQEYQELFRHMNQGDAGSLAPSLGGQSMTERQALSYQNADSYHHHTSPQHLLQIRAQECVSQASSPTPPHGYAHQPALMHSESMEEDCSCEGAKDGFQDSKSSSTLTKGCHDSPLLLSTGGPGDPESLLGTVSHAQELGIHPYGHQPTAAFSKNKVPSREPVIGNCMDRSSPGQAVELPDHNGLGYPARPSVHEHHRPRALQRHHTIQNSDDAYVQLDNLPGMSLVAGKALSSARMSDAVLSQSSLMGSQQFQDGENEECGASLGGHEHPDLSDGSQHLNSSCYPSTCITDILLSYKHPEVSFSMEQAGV

Chain of SIK2 (Q9H0K1 whole entry): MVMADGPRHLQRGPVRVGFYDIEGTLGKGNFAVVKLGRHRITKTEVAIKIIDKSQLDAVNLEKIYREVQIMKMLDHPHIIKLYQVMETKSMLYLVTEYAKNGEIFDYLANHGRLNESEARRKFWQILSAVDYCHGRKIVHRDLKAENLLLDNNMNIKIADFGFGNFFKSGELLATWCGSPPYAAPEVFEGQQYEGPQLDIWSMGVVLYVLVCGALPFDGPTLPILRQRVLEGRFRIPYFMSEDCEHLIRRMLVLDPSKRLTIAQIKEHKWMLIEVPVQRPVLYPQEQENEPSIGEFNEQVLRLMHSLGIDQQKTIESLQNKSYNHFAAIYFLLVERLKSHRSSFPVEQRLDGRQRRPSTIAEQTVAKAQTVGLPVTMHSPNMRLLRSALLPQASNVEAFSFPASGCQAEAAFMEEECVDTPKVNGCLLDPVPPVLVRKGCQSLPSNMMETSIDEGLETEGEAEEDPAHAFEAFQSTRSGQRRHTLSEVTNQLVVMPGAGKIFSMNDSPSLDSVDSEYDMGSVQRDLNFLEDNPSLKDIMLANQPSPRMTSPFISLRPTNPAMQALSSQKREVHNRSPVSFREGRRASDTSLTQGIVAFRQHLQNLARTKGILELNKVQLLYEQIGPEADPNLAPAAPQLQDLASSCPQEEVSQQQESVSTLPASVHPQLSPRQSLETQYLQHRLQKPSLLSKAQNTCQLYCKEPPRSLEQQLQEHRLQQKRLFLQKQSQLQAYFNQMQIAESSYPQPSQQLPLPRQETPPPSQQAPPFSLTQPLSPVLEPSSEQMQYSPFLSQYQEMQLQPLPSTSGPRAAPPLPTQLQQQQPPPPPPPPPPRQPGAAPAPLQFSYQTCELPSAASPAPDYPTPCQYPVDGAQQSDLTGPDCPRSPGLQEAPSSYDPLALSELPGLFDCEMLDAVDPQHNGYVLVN
Chain of SIK1 (P57059 whole entry): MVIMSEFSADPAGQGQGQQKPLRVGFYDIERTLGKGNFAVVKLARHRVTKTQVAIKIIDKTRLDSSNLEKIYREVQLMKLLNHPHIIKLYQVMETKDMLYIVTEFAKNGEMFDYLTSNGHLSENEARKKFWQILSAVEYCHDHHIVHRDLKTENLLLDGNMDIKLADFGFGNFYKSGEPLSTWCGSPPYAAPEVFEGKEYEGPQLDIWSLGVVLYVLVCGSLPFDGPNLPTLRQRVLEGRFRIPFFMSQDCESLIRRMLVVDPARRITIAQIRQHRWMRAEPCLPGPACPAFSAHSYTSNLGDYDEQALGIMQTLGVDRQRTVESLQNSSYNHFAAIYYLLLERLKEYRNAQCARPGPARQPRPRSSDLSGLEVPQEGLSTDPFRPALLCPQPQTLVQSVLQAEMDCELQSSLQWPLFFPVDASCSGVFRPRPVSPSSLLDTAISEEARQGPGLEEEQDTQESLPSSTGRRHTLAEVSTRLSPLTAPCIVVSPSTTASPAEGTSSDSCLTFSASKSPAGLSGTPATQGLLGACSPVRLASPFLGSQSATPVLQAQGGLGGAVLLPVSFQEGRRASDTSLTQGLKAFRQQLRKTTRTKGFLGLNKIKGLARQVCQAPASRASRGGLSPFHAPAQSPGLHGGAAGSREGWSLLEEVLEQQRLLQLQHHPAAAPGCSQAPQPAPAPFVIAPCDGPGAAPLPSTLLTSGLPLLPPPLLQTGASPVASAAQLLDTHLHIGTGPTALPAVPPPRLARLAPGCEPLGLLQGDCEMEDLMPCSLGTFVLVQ

Broadly, the IC50 is the concentration at which inhibition is half-maximal. Take `COc1cc2ncn(-c3ccc(C(N)=O)c(Oc4ccccc4Cl)n3)c2cc1OC` [Example 1, 2-(2-chlorophenoxy)-6-(5,6-dimethoxybenzimidazol-1-yl)pyridine-3-carboxamide]: the IC50 on SIK1 is 15.1 nM; on SIK2, 14.2 nM; at SIK3, 57.2 nM.

On to `COc1cc2ncn(-c3ccc(C(N)=O)c(Nc4ccccc4)n3)c2cc1OC` [Example 2, 6-(5,6-Dimethoxy-benzoimidazol-1-yl)-2-phenylamino-nicotinamide], for which the results for the IC50 on SIK1, at SIK2 and at SIK3 were 14 nM, 3.8 nM and 97.2 nM, respectively.

On to `COc1cc2ncn(-c3ccc(C(N)=O)c(NCc4ccccc4)n3)c2cc1OC` [Example 3, 2-(benzylamino)-6-(5,6-dimethoxybenzimidazol-1-yl)pyridine-3-carboxamide], for which the values for the IC50 on SIK1, at SIK2 and on SIK3 were 15.5 nM, 7.8 nM and 156 nM, respectively.

For `COc1cc2ncn(-c3ccc(C(N)=O)c(NC(CCN)c4ccsc4)n3)c2cc1OC` (stereo not shown) [Example 4, 2-[[3-amino-1-(3-thienyl)propyl]amino]-6-(5,6-dimethoxybenzimidazol-1-yl)pyridine-3-carboxamide hydrochloride], the figures for the IC50 on SIK1, at SIK2 and at SIK3 were 3.4 nM, 3.3 nM and 114 nM, respectively.

As to `COc1cc2ncn(-c3ccc(C(N)=O)c(NC(CCN)c4ccccc4)n3)c2cc1OC` (stereo not shown) [Example 5, 2-[(3-amino-1-phenyl-propyl)amino]-6-(5,6-dimethoxybenzimidazol-1-yl)pyridine-3-carboxamide hydrochloride], the half-maximal inhibitory concentration (IC50) on SIK1 was 7.4 nM; at SIK2, 9.5 nM; at SIK3, 331 nM.

Regarding `COc1cc2ncn(-c3ccc(C(N)=O)c(NCCc4ccccc4)n3)c2cc1OC` [Example 6, 6-(5,6-dimethoxybenzimidazol-1-yl)-2-(2-phenylethylamino)pyridine-3-carboxamide], the IC50 on SIK1 was 2.8 nM; at SIK2 it was 2.5 nM; at SIK3, 39.9 nM.

In the case of `COc1cc2ncn(-c3ccc(C(N)=O)c(NCc4cccs4)n3)c2cc1OC` [Example 7, 6-(5,6-dimethoxybenzimidazol-1-yl)-2-(2-thienylmethylamino)pyridine-3-carboxamide], the values for the IC50 on SIK1, on SIK2 and at SIK3 were 29.7 nM, 18.2 nM and 188 nM, respectively.

For the compound `COc1cc2ncn(-c3ccc(C(N)=O)c(NCc4ccc(Cl)cc4)n3)c2cc1OC` [Example 8, 2-[(4-chlorophenyl)methylamino]-6-(5,6-dimethoxybenzimidazol-1-yl)pyridine-3-carboxamide], the IC50 at SIK1 worked out at 27.4 nM; at SIK2 it was 16.2 nM; on SIK3 it was 260 nM.

On to `COc1cc2ncn(-c3ccc(C(N)=O)c(NCCc4cccc(Cl)c4)n3)c2cc1OC` [Example 9, 2-[2-(3-chlorophenyl)ethylamino]-6-(5,6-dimethoxybenzimidazol-1-yl)pyridine-3-carboxamide], for which the IC50 at SIK1 stood at 6.2 nM; on SIK2, 6.5 nM; at SIK3 it was 146 nM.

Consider `COc1cc2ncn(-c3ccc(C(N)=O)c(NC(CN)c4cccc(Cl)c4)n3)c2cc1OC` (stereo not shown) [Example 10, 2-[[2-amino-1-(3-chlorophenyl)ethyl]amino]-6-(5,6-dimethoxybenzimidazol-1-yl)pyridine-3-carboxamide hydrochloride], for which the IC50 at SIK1 came out at 1.7 nM; at SIK2, 1.2 nM; at SIK3, 44.9 nM.

`COc1cc2ncn(-c3ccc(C(N)=O)c(NC(CCN)c4cccc(Cl)c4)n3)c2cc1OC` (stereo not shown) [Example 11, 2-[[3-amino-1-(3-chlorophenyl)propyl]amino]-6-(5,6-dimethoxybenzimidazol-1-yl)pyridine-3-carboxamide hydrochloride]: the IC50 at SIK1 turned out to be 6.3 nM; at SIK2, 15.8 nM; on SIK3, 206 nM.

As for `COc1cc2ncn(-c3ccc(C(N)=O)c(NC(CN)c4ccsc4)n3)c2cc1OC` (stereo not shown) [Example 12, 2-[[2-amino-1-(3-thienyl)ethyl]amino]-6-(5,6-dimethoxybenzimidazol-1-yl)pyridine-3-carboxamide hydrochloride], the IC50 on SIK1 was 1.7 nM; on SIK2 it was 2.2 nM; at SIK3, 69.2 nM.

With `COC(=O)c1ccc(-n2cnc3cc(OC)c(OC)cc32)nc1-c1cccc(Cl)c1` [Example 13, Methyl 2-(3-chlorophenyl)-6-(5,6-dimethoxy-1H-benzo[d]imidazol-1-yl)nicotinate], the figures for the concentration for half-maximal inhibition (IC50) at SIK1, on SIK2 and at SIK3 were 22500 nM, 995 nM and greater than 30000 nM, respectively.

Consider `COC(=O)c1ccc(-n2cnc3cc(OC)c(OC)cc32)nc1N1CCCCC1=O` [Example 14, Methyl 6-(5,6-dimethoxy-1H-benzo[d]imidazol-1-yl)-2-(2-oxopiperidin-1-yl)nicotinate], for which the IC50 came out at 7480 nM at SIK1, 5150 nM at SIK2 and 18000 nM at SIK3.

`COC(=O)c1ccc(-n2cnc3cc(OC)c(OC)cc32)nc1N1CCCC1=O` [Example 15, Methyl 6-(5,6-dimethoxy-1H-benzo[d]imidazol-1-yl)-2-(2-oxopyrrolidin-1-yl)nicotinate]: the IC50 on SIK1 is 1570 nM; on SIK2, 828 nM; at SIK3, 4000 nM.

In the case of `COc1cc2ncn(-c3ccc(C(=O)O)c(N4CCCCC4)n3)c2cc1OC` [Example 16, 6-(5,6-Dimethoxy-1H-benzo[d]imidazol-1-yl)-2-(piperidin-1-yl)nicotinic acid], the IC50 at SIK1 turned out to be 260 nM; at SIK2 it was 241 nM; at SIK3, 1670 nM.

With `CCNC(=O)c1ccc(-n2cnc3cc(OC)c(OC)cc32)nc1-c1cccc(C#N)c1` [Example 17, 2-(3-cyanophenyl)-6-(5,6-dimethoxybenzimidazol-1-yl)-N-ethyl-pyridine-3-carboxamide], the values for the IC50 on SIK1, at SIK2 and at SIK3 were 14900 nM, 5070 nM and 21600 nM, respectively.

As for `CNC(=O)c1ccc(-n2cnc3cc(OC)c(OC)cc32)nc1-c1cccc(C#N)c1` [Example 18, 2-(3-Cyanophenyl)-6-(5,6-dimethoxybenzimidazol-1-yl)-N-methyl-pyridine-3-carboxamide; Formic Acid], the values for the 50% inhibitory concentration (IC50) at SIK1, at SIK2 and on SIK3 were 9470 nM, 5770 nM and 13500 nM, respectively.

As for `COc1cc2ncn(-c3ccc(C(=O)NC4CC4)c(-c4cccc(C#N)c4)n3)c2cc1OC` [Example 19, 2-(3-Cyanophenyl)-N-cyclopropyl-6-(5,6-dimethoxybenzimidazol-1-yl)pyridine-3-carboxamide], the results for the 50% inhibitory concentration (IC50) on SIK1, at SIK2 and at SIK3 were 1770 nM, 5740 nM and greater than 10000 nM, respectively.

For `COc1cc2ncn(-c3ccc(C(=O)NCC(F)(F)F)c(-c4cccc(C#N)c4)n3)c2cc1OC` [Example 20, 2-(3-Cyanophenyl)-6-(5,6-dimethoxybenzimidazol-1-yl)-N-(2,2,2-trifluoroethyl)pyridine-3-carboxamide], the IC50 is 12100 nM on SIK1, 6240 nM at SIK2 and greater than 30000 nM on SIK3.

In the case of `COc1cc2ncn(-c3ccc(C(N)=O)c(-c4cccc(C#N)c4)n3)c2cc1OC` [Example 21, 2-(3-Cyanophenyl)-6-(5,6-dimethoxybenzimidazol-1-yl)pyridine-3-carboxamide], the figures for the IC50 on SIK1, on SIK2 and on SIK3 were 659 nM, 878 nM and 3500 nM, respectively.

Consider `COc1cc(-n2cnc3cc(Nc4ccc(C)nn4)ccc32)nc(OC)c1C(C)=O` [Example 29, 1-[2,4-dimethoxy-6-[5-[(6-methylpyridazin-3-yl)amino]benzimidazol-1-yl]-3-pyridyl]ethanone], for which the IC50 on SIK1 turned out to be 1460 nM; at SIK2, 86.7 nM.

With `CC(=O)c1ccc(-n2cnc3cc4c(cc32)NCC4)nc1-n1nc(C#N)cc1C` [Example 30, 1-[3-acetyl-6-(6,7-dihydro-5H-pyrrolo[3,2-f]benzimidazol-3-yl)-2-pyridyl]-5-methyl-pyrazole-3-carbonitrile], the concentration for half-maximal inhibition (IC50) at SIK1 amounted to 547 nM; on SIK2, 816 nM.
